Data reported in patent US11241501B2, “Anticancer prodrug for overcoming drug resistance” (Korea University Research and Business Foundation, priority 2018, dated 2022).

Columns and labels:
[1] = test system: MCF7/Dox xenograft tumors; assay: Independent comparative xenograft study of C1-C4; format: in vivo, mice; details: n=5 per group, FIG. 23C
Description: Tumors are shown (right). […] C1 injection led to a 58% reduction in tumor growth, which was statistically greater than the reductions seen in the case of C2 (16%), C3 (9%), C4 (6%) and DMSO (0%) tested under otherwise identical conditions.

HepG2 cells [2] = assay: Confocal intracellular localization with MitoTracker; format: cell-based, human; details: HepG2, 5 μM, 24 hr
Method: (§1) HepG2 cells treated with each compound (5 μM, 24 hr) were co-stained with the mitochondrial marker MitoTracker (green). Boxed regions show co-localization of the test compounds and probe within the mitochondria. […] Experiments were carried out in triplicate and the data shown represent means±SD. **p<0.01. […] HepG2 cells were incubated with BNPP (100 μM) for 2 hr prior to C1 treatment. **p<0.01. […] Cleaved caspase-3 and PARP-1 levels were examined to assess apoptosis induction. C, cleaved.
Cells were seeded on glass chamber slides (Nalgene Nunc) followed by probe treatment. After 48 h, the cells were fixed with 4% formaldehyde, and blocked with 2% bovine serum albumin-PBS for 30 min. The mitochondria were stained using MitoTracker™ Green FM (Invitrogen, USA) for 30 min. Fluorescent images were obtained using a confocal laser scanning microscope (Carl Zeiss MicroImaging, Inc., Germany).

[3] = test system: cancer cells (A549 and HepG2), normal cells (NHDF and IMR90); assay: Cellular uptake of compounds in normal and cancer cells; format: cell-based, human; details: 5 μM, 6 h, A549, HepG2 vs NHDF
Method: Cells were treated with 5 μM of each compound for 6 h. Fluorescence intensities were determined using SpectraMAX 13;
(§2) To analyze the cellular fluorescence levels upon compound treatment, cells were seeded in plates 1 day before treatment with the compounds. Cells were then treated with each compound for the indicated dose or time course. After the experiment, cells were washed with ice-cold PBS, trypsinized, and centrifuged. The cell pellet was re-suspended in 300 μL of PBS and then analyzed using a multiplate reader (SpectraMAX I3x). The results were normalized according to the number of cells.

MCF7 and MCF7/Dox cells = assay: Intracellular accumulation, fluorescence assay; format: cell-based, human; details: up to 12 hr after treatment
Method: (§3) Fluorescence intensities were measured with SpectraMAX 13. Data represent means±SD. **p<0.01. […] Data represent means±SD. **[…]. […] Data represent the mean±SD (n=3 experimental replicates). *p<0.05, **p<0.01. […] MCF7/Dox cells were treated with C1 or C3 as indicated, and the cytosolic (C) and mitochondrial (M) fractions were subjected to immunoblot assay. COX-IV and tubulin were used as markers for the mitochondria and cytosol fractions, respectively.
Mito-tracker (green) was utilized to show the mitochondria;
as §2

MCF7 cells = assay: Colony formation assay; format: cell-based, human; details: 10 days
Method: (§4) Cells were seeded in 24 well plates at 2×10^5 cells per well and were allowed to adhere for at least 24 h, growth medium was replaced with medium containing C1 or its analogues at the indicated concentrations and times, and cell viability was assessed via the WST-1 assay (Roche Diagnostics, Laval, QC, Canada). For the colony formation assay, cells were seeded in 6-well plates. After 24 h, cells were maintained in the presence of each probe or vehicle dimethyl sulfoxide (DMSO) for 10 days. Colonies were fixed with methanol for 10 min and stained with 0.05% crystal violet in 20% ethanol.

HepG2 cells [4] = assay: WST cell viability assay; format: cell-based, human
Method: as §1, §4

[5] = test system: p21^Waf1 and phosphorylated PDH levels; assay: Immunoblot assay of p21Waf1 and phosphorylated PDH; format: cell-based, human
Method: as §1
(§5) Immunoblot analyses were performed using antibodies specific for phosphorylated serine 293 PDH-EI (ab92696), p21^Waf1 (sc-397), cleaved PARP (5625), cleaved caspase-3 (9664), COX-IV (4850), and Cytochrome c (4280). They were purchased from Abcam (Cambridge, UK), Santa Cruz Biotechnology (Texas, USA) or Cell Signaling Technology (Massachusetts, USA). Anti-tubulin antibodies were obtained from Sigma-Aldrich (St. Louis, USA). Briefly, cells were washed twice in ice-cold PBS and lysed in a radioimmunoprecipitation assay buffer containing 50 mM Tris/HCl (pH 7.5), 150 mM NaCl, 0.1% sodium dodecyl sulfate (SDS), 1% Triton X-100, 1% sodium deoxycholate, and protease inhibitor mixture. After sonification, the lysate was centrifuged, and the supernatant was recovered and loaded onto a 12% SDS-polyacrylamide gel for electrophoresis.

MCF7/Dox cells = assay: Cytochrome c release from mitochondria, immunoblot; format: cell-based, human
Method: as §3
as §5, with “electrophoresis. […]” for “electrophoresis.”

SMILES	reduction in tumor growth [1] [%]	intracellular (mitochondrial) localization (HepG2 cells [2])	tumor cell selectivity of cellular uptake [3]	intracellular accumulation in MCF7/Dox versus MCF7 (MCF7 and MCF7/Dox cells)	colony-forming ability (MCF7 cells)	IC50 (HepG2 cells [4]; HepG2 cells, WST assay, read-out: IC50 (cytotoxicity)) [µM]	cell death in cell-survival assays (HepG2 cells [4]; compared with C3-C6)	effect on p21^Waf1 and phosphorylated PDH levels [5]	cytochrome c release, cleavage of caspase-3 and PARP-1, decrease in cell viability (MCF7/Dox cells)
C#CCC(OC(=O)N[C@H]1C[C@H](O[C@H]2C[C@](O)(C(=O)CO)Cc3c(O)c4c(c(O)c32)C(=O)c2c(OC)cccc2C4=O)O[C@@H](C)[C@H]1O)c1ccc(NC(=O)C(C)C)cc1 (stereo partly drawn) [C4]	6	no detectable mitochondrial localization	no cellular selectivity						
C#CCC(OC(=O)N[C@H]1C[C@H](O[C@H]2C[C@](O)(C(=O)CO)Cc3c(O)c4c(c(O)c32)C(=O)c2c(OC)cccc2C4=O)O[C@@H](C)[C@H]1O)c1ccc(NC(=O)C(Cl)Cl)cc1 (stereo partly drawn) [C2]	16	no detectable mitochondrial localization	no cellular selectivity	substantially lower level in MCF7/Dox than in MCF7	showed this effect only in the case of the MCF7 cells	10.6 ± 1.03	greater cell death in a dose-dependent manner		
COc1cccc2c1C(=O)c1c(O)c3c(c(O)c1C2=O)C[C@@](O)(C(=O)CO)C[C@@H]3O[C@H]1C[C@H](NC(=O)OC(Cc2cn(CCCCCC[P+](c3ccccc3)(c3ccccc3)c3ccccc3)nn2)c2ccc(NC(=O)C(C)C)cc2)[C@H](O)[C@H](C)O1 (stereo partly drawn) [C3]	9	located predominantly within the mitochondria	taken up specifically by cancer cells					no effect on p21^Waf1 or PDH phosphorylation	fails to evoke these effects
